The CheMixHub viscosity set
± gives the uncertainty stated by the source.

Experiment: xn = mol fraction of the nth substance listed

CCCCCCCCCCCCN + C1CCCCC1
303.15 K, 101 kPa
Conditions | viscosity [mPa·s]
x2 = 0.2093 | 2.31 ± 0.025
x2 = 0.3927 | 1.948 ± 0.021
x2 = 0.5029 | 1.709 ± 0.019
x2 = 0.6032 | 1.492 ± 0.016
x2 = 0.8037 | 1.116 ± 0.012

Cc1cccc(O)c1 + C1CCCCC1
308.15 K, 101 kPa
Conditions | viscosity [mPa·s]
x1 = 0.0832 | 0.8736 ± 0.0072
x1 = 0.289 | 1.288 ± 0.01
x1 = 0.3627 | 1.541 ± 0.012
x1 = 0.4467 | 1.863 ± 0.015
x1 = 0.5201 | 2.175 ± 0.017
x1 = 0.5859 | 2.547 ± 0.021
x1 = 0.7213 | 3.745 ± 0.03
x1 = 0.8473 | 5.244 ± 0.043
x1 = 0.9032 | 6.428 ± 0.052

ClC1CCCCC1 + C1CCCCC1
viscosity [mPa·s], 101.3 kPa
Conditions | x2 = 0.095 | x2 = 0.2004 | x2 = 0.2999 | x2 = 0.3989 | x2 = 0.4989 | x2 = 0.5993 | x2 = 0.6986 | x2 = 0.8004 | x2 = 0.9006
298.15 K | 1.485 ± 0.014 | 1.394 ± 0.013 | 1.315 ± 0.012 | 1.241 ± 0.011 | 1.172 ± 0.01 | 1.106 ± 0.0096 | 1.046 ± 0.009 | 0.9893 ± 0.0085 | 0.9379 ± 0.008
313.15 K | 1.153 ± 0.011 | 1.086 ± 0.01 | 1.025 ± 0.0097 | 0.9696 ± 0.0091 | 0.9164 ± 0.0085 | 0.8667 ± 0.008 | 0.821 ± 0.0075 | 0.7771 ± 0.0071 | 0.7392 ± 0.0067

ClC1CCCCC1 + C1CCOC1
viscosity [mPa·s], 101.3 kPa
Conditions | x2 = 0.1036 | x2 = 0.2057 | x2 = 0.3029 | x2 = 0.4018 | x2 = 0.5079 | x2 = 0.6003 | x2 = 0.7026 | x2 = 0.8045 | x2 = 0.9032
298.15 K | 1.38 ± 0.009 | 1.22 ± 0.008 | 1.087 ± 0.0072 | 0.9655 ± 0.0065 | 0.8521 ± 0.0059 | 0.7631 ± 0.0054 | 0.6748 ± 0.0048 | 0.5979 ± 0.0044 | 0.5278 ± 0.004
313.15 K | 1.085 ± 0.0072 | 0.9721 ± 0.0066 | 0.8761 ± 0.006 | 0.7866 ± 0.0055 | 0.7016 ± 0.005 | 0.6344 ± 0.0046 | 0.5652 ± 0.0042 | 0.5038 ± 0.0039 | 0.4475 ± 0.0035

ClC1CCCCC1 + C1CCOCC1
viscosity [mPa·s], 101.3 kPa
Conditions | x2 = 0.1031 | x2 = 0.2 | x2 = 0.3037 | x2 = 0.4038 | x2 = 0.4996 | x2 = 0.6036 | x2 = 0.6992 | x2 = 0.8038 | x2 = 0.9034
298.15 K | 1.459 ± 0.0096 | 1.364 ± 0.0091 | 1.27 ± 0.0087 | 1.188 ± 0.0084 | 1.114 ± 0.008 | 1.04 ± 0.0077 | 0.9774 ± 0.0074 | 0.9135 ± 0.0071 | 0.8561 ± 0.0068
313.15 K | 1.141 ± 0.0077 | 1.073 ± 0.0074 | 1.002 ± 0.0071 | 0.9418 ± 0.0068 | 0.8879 ± 0.0066 | 0.8332 ± 0.0063 | 0.7853 ± 0.0061 | 0.7364 ± 0.0059 | 0.6928 ± 0.0057

Cc1cccc(O)c1 + C1COCCO1
308.15 K, 101 kPa
Conditions | viscosity [mPa·s]
x2 = 0.1 | 6.346 ± 0.076
x2 = 0.2 | 5.28 ± 0.064
x2 = 0.3 | 4.391 ± 0.054
x2 = 0.4 | 3.412 ± 0.042
x2 = 0.5 | 2.693 ± 0.033
x2 = 0.6 | 2.138 ± 0.027
x2 = 0.7 | 1.711 ± 0.021
x2 = 0.8 | 1.407 ± 0.018
x2 = 0.9 | 1.235 ± 0.016

CC(=O)c1ccc(C)cc1 + C=CC#N
308.15 K, 101 kPa
Conditions | viscosity [mPa·s]
x1 = 0.053 | 0.365 ± 0.004
x1 = 0.1107 | 0.4026 ± 0.0043
x1 = 0.1749 | 0.4516 ± 0.0047
x1 = 0.2487 | 0.511 ± 0.0052
x1 = 0.3327 | 0.5909 ± 0.0059
x1 = 0.4237 | 0.684 ± 0.0067
x1 = 0.536 | 0.8136 ± 0.0078
x1 = 0.6679 | 0.9939 ± 0.0094
x1 = 0.8181 | 1.23 ± 0.011

ClC1CCCCC1 + CC1CCCO1
viscosity [mPa·s], 101.3 kPa
Conditions | x2 = 0.0984 | x2 = 0.1994 | x2 = 0.2986 | x2 = 0.4009 | x2 = 0.4991 | x2 = 0.5995 | x2 = 0.701 | x2 = 0.802 | x2 = 0.8995
298.15 K | 1.367 ± 0.009 | 1.195 ± 0.0081 | 1.055 ± 0.0074 | 0.9325 ± 0.0067 | 0.8311 ± 0.0062 | 0.742 ± 0.0057 | 0.6638 ± 0.0053 | 0.5963 ± 0.0049 | 0.5378 ± 0.0046
313.15 K | 1.075 ± 0.0073 | 0.9535 ± 0.0067 | 0.8519 ± 0.0061 | 0.7611 ± 0.0057 | 0.6848 ± 0.0053 | 0.6167 ± 0.0049 | 0.5561 ± 0.0046 | 0.5018 ± 0.0043 | 0.4546 ± 0.004

C=Cn1cc[n+](CC(N)=O)c1.O=S(=O)([N-]S(=O)(=O)C(F)(F)F)C(F)(F)F + CC#N
viscosity [mPa·s], 100 kPa
Conditions | 298.15 K | 303.15 K | 308.15 K | 313.15 K | 318.15 K | 323.15 K
x1 = 0.1 | – | 9.97 ± 2 | 9.16 ± 1.9 | 8.17 ± 1.6 | 7.74 ± 1.6 | 7.02 ± 1.4
x1 = 0.201 | 75.29 ± 15 | 68.64 ± 14 | 59.58 ± 12 | 50.56 ± 10 | – | –
x1 = 0.3026 | – | 246.5 ± 51 | – | – | – | –
x1 = 0.4011 | 805.9 ± 180 | 683.3 ± 150 | 549.2 ± 120 | – | – | –

CC(=O)c1ccc(C)cc1 + CC#N
308.15 K, 101 kPa
Conditions | viscosity [mPa·s]
x1 = 0.0872 | 0.3857 ± 0.015
x1 = 0.1449 | 0.4411 ± 0.016
x1 = 0.2088 | 0.5094 ± 0.018
x1 = 0.2823 | 0.5871 ± 0.021
x1 = 0.3756 | 0.6989 ± 0.024
x1 = 0.4771 | 0.826 ± 0.027
x1 = 0.6125 | 1.001 ± 0.032
x1 = 0.7811 | 1.235 ± 0.039
x1 = 0.9146 | 1.454 ± 0.045

COc1ccc2cc([C@H](C)C(=O)O)ccc2c1 + CC#N
101 kPa
Conditions | viscosity [mPa·s]
297.93 K, x1 = 0.000702 | 0.3571 ± 0.0076
297.96 K, x1 = 0.000233 | 0.3546 ± 0.0075
298.01 K, x1 = 0.001151 | 0.3583 ± 0.0076
298.04 K, x1 = 0.001587 | 0.3603 ± 0.0077
298.07 K, x1 = 0.002732 | 0.364 ± 0.0077
301.61 K, x1 = 0.001151 | 0.3461 ± 0.0074
301.69 K, x1 = 0.000233 | 0.3425 ± 0.0073
301.69 K, x1 = 0.001587 | 0.3476 ± 0.0074
301.7 K, x1 = 0.000702 | 0.344 ± 0.0073
301.75 K, x1 = 0.002732 | 0.351 ± 0.0075
303.56 K, x1 = 0.001151 | 0.3398 ± 0.0072
303.58 K, x1 = 0.002732 | 0.3453 ± 0.0074
303.65 K, x1 = 0.000233 | 0.3359 ± 0.0072
303.66 K, x1 = 0.001587 | 0.342 ± 0.0073
303.69 K, x1 = 0.000702 | 0.3371 ± 0.0072
305.66 K, x1 = 0.000233 | 0.3303 ± 0.007
305.66 K, x1 = 0.001151 | 0.3329 ± 0.0071
305.7 K, x1 = 0.002732 | 0.3376 ± 0.0072
305.71 K, x1 = 0.000702 | 0.331 ± 0.0071
305.71 K, x1 = 0.001587 | 0.3347 ± 0.0071
308.62 K, x1 = 0.001151 | 0.324 ± 0.0069
308.64 K, x1 = 0.001587 | 0.3252 ± 0.0069
308.71 K, x1 = 0.000233 | 0.3206 ± 0.0068
308.75 K, x1 = 0.002732 | 0.3279 ± 0.007
308.76 K, x1 = 0.000702 | 0.322 ± 0.0069
311.62 K, x1 = 0.001151 | 0.3149 ± 0.0067
311.63 K, x1 = 0.001587 | 0.3163 ± 0.0068
311.68 K, x1 = 0.002732 | 0.3191 ± 0.0068
311.69 K, x1 = 0.000233 | 0.3119 ± 0.0067
311.72 K, x1 = 0.000702 | 0.3132 ± 0.0067

C[N+](=O)[O-] + CC#N
101 kPa
Conditions | viscosity [mPa·s]
298.15 K, x1 = 0.107 | 0.3665 ± 0.0092
298.15 K, x1 = 0.206 | 0.389 ± 0.0098
298.15 K, x1 = 0.301 | 0.4121 ± 0.01
298.15 K, x1 = 0.398 | 0.4366 ± 0.011
298.15 K, x1 = 0.502 | 0.4646 ± 0.012
298.15 K, x1 = 0.598 | 0.4917 ± 0.012
298.15 K, x1 = 0.7 | 0.5223 ± 0.013
298.15 K, x1 = 0.792 | 0.5508 ± 0.014
298.15 K, x1 = 0.895 | 0.5844 ± 0.015
298.15 K, x2 = 0.1433 | 0.569 ± 0.006
298.15 K, x2 = 0.3891 | 0.495 ± 0.006
298.15 K, x2 = 0.39 | 0.496 ± 0.005
298.15 K, x2 = 0.403 | 0.492 ± 0.005
298.15 K, x2 = 0.408 | 0.49 ± 0.005
298.15 K, x2 = 0.598 | 0.439 ± 0.005
298.15 K, x2 = 0.698 | 0.413 ± 0.005
298.15 K, x2 = 0.729 | 0.405 ± 0.004
298.15 K, x2 = 0.739 | 0.403 ± 0.004
298.15 K, x2 = 0.776 | 0.395 ± 0.005
298.15 K, x2 = 0.9346 | 0.359 ± 0.005
308.15 K, x2 = 0.1433 | 0.52 ± 0.006
308.15 K, x2 = 0.3891 | 0.454 ± 0.005
308.15 K, x2 = 0.598 | 0.404 ± 0.005
308.15 K, x2 = 0.776 | 0.364 ± 0.005
308.15 K, x2 = 0.9346 | 0.333 ± 0.005
313.15 K, x1 = 0.107 | 0.3169 ± 0.0079
313.15 K, x1 = 0.206 | 0.3355 ± 0.0084
313.15 K, x1 = 0.301 | 0.3546 ± 0.0089
313.15 K, x1 = 0.398 | 0.3751 ± 0.0094
313.15 K, x1 = 0.502 | 0.3985 ± 0.01
313.15 K, x1 = 0.598 | 0.4211 ± 0.011
313.15 K, x1 = 0.7 | 0.4465 ± 0.011
313.15 K, x1 = 0.792 | 0.4697 ± 0.012
313.15 K, x1 = 0.895 | 0.4974 ± 0.012
318.15 K, x2 = 0.1433 | 0.469 ± 0.005
318.15 K, x2 = 0.3891 | 0.411 ± 0.005
318.15 K, x2 = 0.598 | 0.367 ± 0.005
318.15 K, x2 = 0.776 | 0.333 ± 0.005
318.15 K, x2 = 0.9346 | 0.305 ± 0.004
